Measured values: patent US9828412B2, “Short peptide targeting EPS8 binding with EGFR and use thereof” (SOUTHERN MEDICAL UNIVERSITY, priority 2014, dated 2017)
Read-outs that look alike come from different tables or passages of the source. No end group written: not given here.

What was measured:
[1] = test system: EPS8 overexpression tumor cell line MCF-7 (human breast cancer cell line)
Description: EPS8 overexpression tumor cell line MCF-7 (human breast cancer cell line, purchased from ATCC) were selected as target cells, and seeded in 96-well plates at 10,000 cells/well and 100 μL/well. The medium culture was Dulbecco's Modified Eagle's Medium (DMEM) containing 10% FBS. 8 hours later, short peptide P01 was added at different final concentration of 0, 100, 300 and 500 μg/mL. MCF-7 cells were incubated with short peptide P01 for 24 hours, 48 hours and 72 hours. Then OD values at wavelength of 490 nm were detected by MTS assay, and MCF-7 cell viability was calculated.
MCF-7 cell viability=[(ODexperimental-ODblank control)]/[(ODnegative control-ODblank control)]×100%.

[2] = test system: EPS8 overexpression tumor cell line KG1α (human acute myeloid leukemia cell line)
Description: EPS8 overexpression tumor cell line KG1α (human acute myeloid leukemia cell line, purchased from the American Type Culture Collection, ATCC) were selected as target cells, and seeded in 96-well plates at 10,000 cells/well and 100 μL/well. The medium culture was Roswell Park Memorial Institute (RPMI)-1640 containing 10% fetal bovine serum (FBS). […] Then OD values at the wavelength of 490 nm were detected by MTS assay, and KG1α cell viability was calculated.
KG1α cell viability=[(ODexperimental-ODblank control)]/[(ODnegative control-ODblank control)]×100%.

- IC50 (MCF-7 cell viability) ([1]; 24 h): 594.2 µg/mL
- IC50 (MCF-7 cell viability) ([1]; 48 h): 374.9 µg/mL
- IC50 (MCF-7 cell viability) ([1]; 72 h): 304.7 µg/mL
- IC50 (KG1α cell viability) ([2]; 24 h): 888.5 µg/mL
- IC50 (KG1α cell viability) ([2]; 48 h): 413.9 µg/mL
- IC50 (KG1α cell viability) ([2]; 72 h): 335.6 µg/mL
Substance: RKKNKPPPPKK-NH2 [P01, N′-Arg-Lys-Lys-Asn-Lys-Pro-Pro-Pro-Pro-Lys-Lys-NH2-C′]
